Measurements published in ChEMBL document CHEMBL2046268 (Eur J Med Chem, 2012).
pIC50: −log10 of the molar value. Active and inactive are the calls of the source. The calls are words filed in the database; no cut-off is given here.

Key:
A549 [1] = assay: Cytotoxicity against human A549 cells assessed as cell viability after 72 hrs by MTT assay; type: functional, cell-based; settings: A549, 72 h
HeLa [2] = assay: Cytotoxicity against human HeLa cells assessed as cell viability after 72 hrs by MTT assay; type: functional, cell-based
HeLa [3] = assay: Cytotoxicity against human HeLa cells assessed as cell viability after 48 hrs by MTT assay; type: functional, cell-based
Vero [4] = assay: Cytotoxicity against african green monkey Vero cells assessed as cell viability after 72 hrs by MTT assay; type: cell-based; settings: Chlorocebus sabaeus
Vero [5] = assay: Cytotoxicity against african green monkey Vero cells assessed as cell viability after 48 hrs by MTT assay; type: cell-based; settings: Chlorocebus sabaeus
A549 [6] = assay: Cytotoxicity against human A549 cells assessed as cell viability after 48 hrs by MTT assay; type: functional, cell-based; settings: A549, 48 h
MCF7 [7] = assay: Cytotoxicity against human MCF7 cells assessed as cell viability after 72 hrs by MTT assay; type: functional, cell-based; settings: MCF7, 72 h
MCF7 [8] = assay: Cytotoxicity against human MCF7 cells assessed as cell viability after 48 hrs by MTT assay; type: functional, cell-based; settings: MCF7, 48 h
Vero [9] = assay: Selectivity index, ratio of IC50 for african green monkey Vero cells to IC50 for human MCF7 cells after 48 hrs
HeLa [10] = assay: Induction of apoptosis in human HeLa cells assessed as formation of apoptotic bodies at 8 uM after 12 hrs using Hoechst 33342 staining by fluorescence microscopic analysis; type: functional, cell-based
HeLa [11] = assay: Induction of apoptosis in human HeLa cells assessed as DNA fragmentation at 16 to 32 uM after 24 hrs by agarose gel electrophoresis; type: functional, cell-based
Caspase-3 (Homo sapiens) [12] = target: T1, Caspase-3 (Homo sapiens) (UniProt P42574); assay: Induction of caspase 3 activation in human HeLa cells using Ac-DEVD-pNA at 4 uM after 4 hrs by Bradford assay; type: cell-based
T1 sequence (whole entry): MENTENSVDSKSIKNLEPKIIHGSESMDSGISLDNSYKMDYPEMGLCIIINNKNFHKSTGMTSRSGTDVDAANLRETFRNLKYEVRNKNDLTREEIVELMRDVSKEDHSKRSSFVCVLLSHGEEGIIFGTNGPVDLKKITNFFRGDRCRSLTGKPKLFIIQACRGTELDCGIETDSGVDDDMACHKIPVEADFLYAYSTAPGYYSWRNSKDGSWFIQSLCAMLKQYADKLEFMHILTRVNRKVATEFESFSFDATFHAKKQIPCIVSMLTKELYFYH

Caspase-3 (Homo sapiens) [13] = target: T1, Caspase-3 (Homo sapiens); assay: Induction of caspase 3 activation in human HeLa cells using Ac-DEVD-pNA at 24 uM after 8 hrs by Bradford assay; type: cell-based
HeLa [14] = assay: Induction of apoptosis in human HeLa cells assessed as early apoptotic cells at 2 to 4 uM up to 4 hrs using annexin/PI staining by fluorescence microscopy; type: functional, cell-based
Caspase-3 (Homo sapiens) [15] = target: T1, Caspase-3 (Homo sapiens); assay: Induction of caspase 3 activation in human HeLa cells using Ac-DEVD-pNA at 8 uM after 4 hrs by Bradford assay; type: cell-based
HeLa [16] = assay: Induction of apoptosis in human HeLa cells assessed as phosphatidylserine externalization at 2 to 16 uM using annexin/PI staining by fluorescence microscopy; type: functional, cell-based; settings: TDE = time-dependent effect
HeLa [17] = assay: Induction of apoptosis in human HeLa cells assessed as necrotic cells at 2 to 16 uM using annexin/PI staining by fluorescence microscopy; type: functional, cell-based; settings: TDE = time-dependent effect
HeLa [18] = assay: Induction of apoptosis in human HeLa cells assessed as DNA fragmentation at 4 to 32 uM after 12 hrs by agarose gel electrophoresis; type: functional, cell-based
HeLa [19] = assay: Induction of apoptosis in human HeLa cells assessed as DNA fragmentation at 16 uM after 48 hrs by agarose gel electrophoresis; type: functional, cell-based
HeLa [20] = assay: Induction of apoptosis in human HeLa cells assessed as necrotic cells after 0.5 to 4 hrs using annexin/PI staining by fluorescence microscopy; type: functional, cell-based
HeLa [21] = assay: Induction of apoptosis in human HeLa cells assessed as phosphatidylserine externalization after 0.5 to 4 hrs using annexin/PI staining by fluorescence microscopy; type: functional, cell-based
HeLa [22] = assay: Induction of apoptosis in human HeLa cells assessed as increase in sub-G1 DNA content at 24 uM after 12 hrs using Propidium iodide staining by flow cytometry; type: functional, cell-based
Caspase-3 (Homo sapiens) [23] = target: T1, Caspase-3 (Homo sapiens); assay: Induction of caspase 3 activation in human HeLa cells using Ac-DEVD-pNA after 4 hrs by Bradford assay; type: cell-based
HeLa [24] = assay: Induction of apoptosis in human HeLa cells assessed as chromatin condensation at 8 uM after 12 hrs using Hoechst 33342 staining by fluorescence microscopic analysis; type: functional, cell-based

Structure (SMILES)	pIC50 (A549 [1])	pIC50 (HeLa [2])	pIC50 (HeLa [3])	pIC50 (Vero [4])	pIC50 (Vero [5])	pIC50 (A549 [6])	pIC50 (MCF7 [7])	pIC50 (MCF7 [8])	Ratio IC50 (Vero [9])	other results
CC1=C(C)C(=O)O[C@@H]([C@@H](C)[C@H]2CC[C@H]3[C@@H]4C[C@@H](O)[C@]5(C=O)CCC(=O)[C@]5(C)[C@H]4CC[C@]23C)C1	< 4.40	< 4.40	< 4.40	< 4.40	< 4.40	< 4.40	< 4.40	< 4.40	–	–
CC1=C(CO)C(=O)O[C@@H]([C@@H](C)[C@H]2CC[C@H]3[C@@H]4C[C@@H](O)[C@@]5(O)[C@@H](O)[C@@H](O)CC(=O)[C@]5(C)[C@H]4CC[C@]23C)C1	< 4.40	< 4.40	< 4.40	< 4.40	< 4.40	< 4.40	< 4.40	< 4.40	–	–
CC1=C(CO)C(=O)O[C@@H](/C(C)=C2\[C@@H](O)C[C@H]3[C@@H]4C[C@H]5O[C@]56[C@@H](O)C=CC(=O)[C@]6(C)[C@H]4CC[C@]23C)C1	< 4.40	4.51	4.40	< 4.40	< 4.40	< 4.40	5.22	4.56	<1	–
CC(=O)OCC1=C(C)C[C@H]([C@@H](C)[C@H]2CC[C@H]3[C@@H]4C[C@H]5O[C@]56[C@@H](O)C=CC(=O)[C@]6(C)[C@H]4CC[C@]23C)OC1=O	5.36	5.33	5.11	5.07	4.94	5.17	5.70	5.28	2.2	–
CC1=C(CO)C(=O)O[C@@H]([C@@H](C)[C@H]2CC[C@H]3[C@@H]4C[C@H]5O[C@]56[C@@H](O)C=CC(=O)[C@]6(C)[C@H]4CC[C@]23C)C1 [WITHAFERIN A]	5.82	5.64	5.52	5.77	5.89	5.18	6.22	5.44	<1	Activity (HeLa [10]): Active; Activity (HeLa [11]): inactive; Activity (Caspase-3 (Homo sapiens) [12]): inactive; Activity (Caspase-3 (Homo sapiens) [13]): Active; Activity (HeLa [14]): Active; Activity (Caspase-3 (Homo sapiens) [15]): inactive; Activity (HeLa [16]): tde; Activity (HeLa [17]): tde; Activity (HeLa [18]): inactive; Activity (HeLa [19]): inactive; Activity (HeLa [20]): Dose-dependent effect; Activity (HeLa [21]): Dose-dependent effect; Activity (HeLa [22]): Active; Activity (Caspase-3 (Homo sapiens) [23]): Dose-dependent effect; Activity (HeLa [24]): Active
CC1=C(CO)C(=O)O[C@@H]([C@@H](C)[C@H]2CC[C@H]3[C@@H]4C[C@@H](O)[C@]5(C=O)C=CC(=O)[C@]5(C)[C@H]4CC[C@]23C)C1	< 4.40	< 4.40	< 4.40	< 4.40	< 4.40	< 4.40	< 4.40	< 4.40	–	–
CC1=C(COC(C)(C)OC=O)C(=O)O[C@@H]([C@@H](C)[C@H]2CC[C@H]3[C@@H]4C[C@H]5O[C@]56[C@@H](O)C=CC(=O)[C@]6(C)[C@H]4CC[C@]23C)C1	< 4.40	4.43	< 4.40	4.73	4.56	< 4.40	4.74	4.57	1	–
Sc1ncnc2nc[nH]c12 [MERCAPTOPURINE ANHYDROUS]	–	–	–	–	–	–	–	–	48.3	–
